Experimental data reported in US10508104B2, “6-hydroxy-5-(phenyl/heteroarylsulfonyl)pyrimidin-4(1H)-one as APJ agonists” (Bristol-Myers Squibb Company, priority 2016, dated 2019).

Target: human APJ receptor (Homo sapiens (Human), UniProt P35414)
Test: Intracellular cAMP accumulation assay (APJ hcAMP, HTRF)
Type: cell-based
Details: HEK293 cells stably expressing human APJ receptor; inhibition of forskolin-mediated cAMP production; read-out: Human APJ cAMP EC50 Potency range
Summary of the method: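 HEK293 cells stably expressing human APJ, 5,000 per well, incubated 30 min at rt with compound, […] and 2 μM forskolin. cAMP measured by HTRF against a cAMP standard curve as inhibition of forskolin-driven production. EC50 from variable-slope sigmoidal fit.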

Sequence of human APJ receptor (P35414 whole entry): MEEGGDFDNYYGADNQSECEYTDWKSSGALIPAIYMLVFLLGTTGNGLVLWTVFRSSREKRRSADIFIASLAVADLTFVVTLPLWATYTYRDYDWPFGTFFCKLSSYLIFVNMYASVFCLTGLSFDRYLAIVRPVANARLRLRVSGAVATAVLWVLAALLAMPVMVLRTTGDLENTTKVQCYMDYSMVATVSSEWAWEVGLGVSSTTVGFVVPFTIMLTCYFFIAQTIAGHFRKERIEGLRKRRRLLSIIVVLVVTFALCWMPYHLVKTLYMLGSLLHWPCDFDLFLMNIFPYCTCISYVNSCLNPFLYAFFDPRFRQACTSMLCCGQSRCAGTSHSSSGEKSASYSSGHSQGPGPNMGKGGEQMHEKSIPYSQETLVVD

Row | EC50 [nM] | Structure (SMILES)
1 | 0.01 to 10 | CCCCc1nc(=O)c(S(=O)(=O)c2ccc(-c3ccccc3F)cc2)c(O)n1[C@@H](CC)c1cccc(C#N)c1 [Example 511, 3-[(1S)-1-[2-butyl-5-({2′-fluoro-[1,1′-biphenyl]-4-yl}sulfonyl)-6-hydroxy-4-oxo-1,4-dihydropyrimidin-1-yl]propyl]benzonitrile]
2 | 0.01 to 10 | CCCCc1nc(=O)c(S(=O)(=O)c2ccc(-c3ccncc3F)cc2)c(O)n1[C@@H](CC)c1cccc(C#N)c1 [Example 512, 3-[(1S)-1-{2-butyl-5-[4-(3-fluoropyridin-4-yI)benzenesulfonyl]-6-hydroxy-4-oxo-1,4-dihydropyrimidin-1-yl}propyl]benzonitrile]
3 | 0.01 to 10 | CCCCc1nc(=O)c(S(=O)(=O)c2ccc(-c3ccccc3C(=O)N(C)C)cc2)c(O)n1[C@@H](CC)c1cccc(C#N)c1 [Example 513, 4′-({2-butyl-1-[(1S)-1-(3-cyanophenyl)propyl]-6-hydroxy-4-oxo-1,4-dihydropyrimidin-5-yl}sulfonyl)-N,N-dimethyl-[1,1′-biphenyl]-2-carboxamide]
4 | 0.01 to 10 | CCCCc1nc(=O)c(S(=O)(=O)c2ccc(-c3ccc(F)cc3C(N)=O)cc2)c(O)n1[C@@H](CC)c1ccc(C#N)c(F)c1 [Example 514, 4′-({2-butyl-1-[(1S)-1-(4-cyano-3-fluorophenyl)propyl]-6-hydroxy-4-oxo-1,4-dihydropyrimidin-5-yl}sulfonyl)-4-fluoro-[1,1′-biphenyl]-2-carboxamide]
5 | 0.01 to 10 | CCCCc1nc(=O)c(S(=O)(=O)c2ccc(-c3cccnc3C)cc2)c(O)n1[C@@H](CC)c1ccc(C#N)c(F)c1 [Example 515, 4-[(1S)-1-{2-butyl-6-hydroxy-5-[4-(2-methylpyridin-3-yl)benzenesulfonyl]-4-oxo-1,4-dihydropyrimidin-1-yl}propyl]-2-fluorobenzonitrile]
6 | 0.01 to 10 | CCCCc1nc(=O)c(S(=O)(=O)c2ccc(-c3ccncc3C)cc2)c(O)n1[C@@H](CC)c1ccc(C#N)c(F)c1 [Example 516, 4-[(1S)-1-{2-butyl-6-hydroxy-5-[4-(3-methylpyridin-4-yl)benzenesulfonyl]-4-oxo-1,4-dihydropyrimidin-1-yl}propyl]-2-fluorobenzonitrile]
7 | 0.01 to 10 | CCCCc1nc(=O)c(S(=O)(=O)c2ccc(-c3ccnc(F)c3C)cc2)c(O)n1[C@@H](CC)c1ccc(C#N)c(F)c1 [Example 517, 4-[(1S)-1-{2-butyl-5-[4-(2-fluoro-3-methylpyridin-4-yl)benzenesulfonyl]-6-hydroxy-4-oxo-1,4-dihydropyrimidin-1-yl}propyl]-2-fluorobenzonitrile]
8 | 0.01 to 10 | CCCCc1nc(=O)c(S(=O)(=O)c2ccc(-c3cccn(C)c3=O)cc2)c(O)n1[C@@H](CC)c1ccc(C#N)c(F)c1 [Example 518, 4-[(1S)-1-{2-butyl-6-hydroxy-5-[4-(1-methyl-2-oxo-1,2-dihydropyridin-3-yl)benzenesulfonyl]-4-oxo-1,4-dihydropyrimidin-1-yl}propyl]-2-fluorobenzonitrile]
9 | 0.01 to 10 | CCCCc1nc(=O)c(S(=O)(=O)c2ccc(-c3ccc(F)nc3C)cc2)c(O)n1[C@@H](CC)c1ccc(C#N)c(F)c1 [Example 519, 4-[(1S)-1-{2-butyl-5-[4-(6-fluoro-2-methylpyridin-3-yl)benzenesulfonyl]-6-hydroxy-4-oxo-1,4-dihydropyrimidin-1-yl}propyl]-2-fluorobenzonitrile]
10 | 0.01 to 10 | CCCCc1nc(=O)c(S(=O)(=O)c2ccc(-c3ccccc3C(=O)NC)cc2)c(O)n1[C@@H](CC)c1ccc(C#N)c(F)c1 [Example 520, 4′-({2-butyl-1-[(1S)-1-(4-cyano-3-fluorophenyl)propyl]-6-hydroxy-4-oxo-1,4-dihydropyrimidin-5-yl}sulfonyl)-N-methyl-[1,1′-biphenyl]-2-carboxamide]
11 | 0.01 to 10 | CCCCc1nc(=O)c(S(=O)(=O)c2ccc(-c3ccccc3C(=O)N(C)C)cc2)c(O)n1[C@@H](CC)c1ccc(C#N)c(F)c1 [Example 521, 4′-({2-butyl-1-[(1S)-1-(4-cyano-3-fluorophenyl)propyl]-6-hydroxy-4-oxo-1,4-dihydropyrimidin-5-yl}sulfonyl)-N,N-dimethyl-[1,1′-biphenyl]-2-carboxamide]
12 | 0.01 to 10 | CCCCc1nc(=O)c(S(=O)(=O)c2ccc(-c3ccccc3C(=O)NC3CC3)cc2)c(O)n1[C@@H](CC)c1cccc(C#N)c1 [Example 522, 4′-({2-butyl-1-[(1S)-1-(3-cyanophenyl)propyl]-6-hydroxy-4-oxo-1,4-dihydropyrimidin-5-yl}sulfonyl)-N-cyclopropyl-[1,1′-biphenyl]-2-carboxamide]
13 | 0.01 to 10 | CCCCc1nc(=O)c(S(=O)(=O)c2ccc(-c3cccc(C(=O)NC)c3)cc2)c(O)n1[C@@H](CC)c1cccc(C#N)c1 [Example 523, 4′-({2-butyl-1-[(1S)-1-(3-cyanophenyl)propyl]-6-hydroxy-4-oxo-1,4-dihydropyrimidin-5-yl}sulfonyl)-N-methyl-[1,1′-biphenyl]-3-carboxamide]
14 | 0.01 to 10 | CCCCc1nc(=O)c(S(=O)(=O)c2ccc(-c3cccc4c3C(=O)NC4)cc2)c(O)n1[C@H](c1cccc(C#N)c1)C1CC1 [Example 524, 3-[(S)-{2-butyl-6-hydroxy-4-oxo-5-[4-(3-oxo-2,3-dihydro-1H-isoindol-4-yl)benzenesulfonyl]-1,4-dihydropyrimidin-1-yl}(cyclopropyl)methyl] benzonitrile]
15 | 0.01 to 10 | CCCCc1nc(=O)c(S(=O)(=O)c2ccc(-c3ccc(C(N)=O)cc3F)cc2)c(O)n1[C@@H](CC)c1cccc(C#N)c1 [Example 525, 4′-({2-butyl-1-[(1S)-1-(3-cyanophenyl)propyl]-6-hydroxy-4-oxo-1,4-dihydropyrimidin-5-yl}sulfonyl)-2-fluoro-[1,1′-biphenyl]-4-carboxamide]
16 | 0.01 to 10 | CCCCc1nc(=O)c(S(=O)(=O)c2ccc(-c3ccnc(F)c3C)cc2)c(O)n1[C@@H](CC)c1ccnc(C#N)c1 [Example 526, 4-[(1S)-1-{2-butyl-5-[4-(2-fluoro-3-methylpyridin-4-yl)benzenesulfonyl]-6-hydroxy-4-oxo-1,4-dihydropyrimidin-1-yl}propyl]pyridine-2-carbonitrile]
17 | 0.01 to 10 | CCCCc1nc(=O)c(S(=O)(=O)c2ccc(-c3ccncc3C)cc2)c(O)n1[C@@H](CC)C1CCOCC1 [Example 527, 2-butyl-6-hydroxy-5-[4-(3-methylpyridin-4-yl)benzenesulfonyl]-1-[(1S)-1-(oxan-4-yl)propyl]-1,4-dihydropyrimidin-4-one]
18 | 0.01 to 10 | CCCCc1nc(=O)c(S(=O)(=O)c2ccc(-c3ccnc(F)c3C)cc2)c(O)n1[C@@H](CC)C1CCOCC1 [Example 528, 2-butyl-5-[4-(2-fluoro-3-methylpyridin-4-yl)benzenesulfonyl]-6-hydroxy-1-[(1S)-1-(oxan-4-yl)propyl]-1,4-dihydropyrimidin-4-one]
19 | 0.01 to 10 | CCCCc1nc(=O)c(S(=O)(=O)c2ccc(-c3cccc4c3C(=O)NC4)cc2)c(O)n1[C@@H](CC)c1cccc(C#N)c1 [Example 529, 3-[(1S)-1-{2-butyl-6-hydroxy-4-oxo-5-[4-(3-oxo-2,3-dihydro-1H-isoindol-4-yl)benzenesulfonyl]-1,4-dihydropyrimidin-1-yl}propyl]benzonitrile]
20 | 0.01 to 10 | CCCCc1nc(=O)c(S(=O)(=O)c2ccc(-c3ccccc3C(=O)NC)cc2)c(O)n1[C@H](c1cccc(C#N)c1)C1CC1 [Example 530, 4′-({2-butyl-1-[(S)-(3-cyanophenyl)(cyclopropyl)methyl]-6-hydroxy-4-oxo-1,4-dihydropyrimidin-5-yl}sulfonyl)-N-methyl-[1,1′-biphenyl]-2-carboxamide]
21 | 10 to 100 | CCCCc1nc(=O)c(S(=O)(=O)c2ccc(-c3cccc(C(C)(C)O)c3)cc2)c(O)n1[C@@H](CC)c1cccc(C#N)c1 [Example 531, 3-[(1S)-1-(2-buty1-6-hydroxy-5-{[3′-(2-hydroxypropan-2-yl)-[1,1′-biphenyl]-4-yl]sulfonyl}-4-oxo-1,4-dihydropyrimidin-1-yl)propyl]benzonitrile]
22 | 10 to 100 | CCCCc1nc(=O)c(S(=O)(=O)c2ccc(-c3ccc(C(C)(C)O)cc3)cc2)c(O)n1[C@@H](CC)c1cccc(C#N)c1 [Example 532, 3-[(1S)-1-(2-butyl-6-hydroxy-5-{[4′-(2-hydroxypropan-2-yl)-[1,1′-biphenyl]-4-yl]sulfonyl}-4-oxo-1,4-dihydropyrimidin-1-yl)propyl]benzonitrile]
23 | 0.01 to 10 | CCCCc1nc(=O)c(S(=O)(=O)c2ccc(-c3ccccc3C(=O)NC3CC3)cc2)c(O)n1[C@H](c1cccc(C#N)c1)C1CC1 [Example 533, 4′-({2-butyl-1-[(S)-(3-cyanophenyl)(cyclopropyl)methyl]-6-hydroxy-4-oxo-1,4-dihydropyrimidin-5-yl}sulfonyl)-N-cyclopropyl-[1,1′-biphenyl]-2-carboxamide]
24 | 0.01 to 10 | CCCCc1nc(=O)c(S(=O)(=O)c2ccc(-c3cccc(C(=O)NC4CC4)c3F)cc2)c(O)n1[C@@H](CC)c1cccc(C#N)c1 [Example 534, 4′-({2-butyl-1-[(1S)-1-(3-cyanophenyl)propyl]-6-hydroxy-4-oxo-1,4-dihydropyrimidin-5-yl}sulfonyl)-N-cyclopropyl-2-fluoro-[1,1′-biphenyl]-3-carboxamide]
25 | 0.01 to 10 | CCCCc1nc(=O)c(S(=O)(=O)c2ccc(-c3cccc4c3CNC4=O)cc2)c(O)n1[C@@H](CC)c1cccc(C#N)c1 [Example 535, 3-[(1S)-1-{2-butyl-6-hydroxy-4-oxo-5-[4-(1-oxo-2,3-dihydro-1H-isoindol-4-yl)benzenesulfonyl]-1,4-dihydropyrimidin-1-yl}propyl]benzonitrile]
26 | 0.01 to 10 | CCCCc1nc(=O)c(S(=O)(=O)c2ccc(-c3cc(F)ncc3C)cc2)c(O)n1[C@@H](CC)c1cccc(C#N)c1 [Example 536, 3-[(1S)-1-{2-butyl-5-[4-(2-fluoro-5-methylpyridin-4-yl)benzenesulfonyl]-6-hydroxy-4-oxo-1,4-dihydropyrimidin-1-yl}propyl]benzonitriIe]
